Source: patent US20060069032A1 (L'OREAL, priority 2003, published 2006)

Columns and labels:
[1] = tested on: Transglutaminase 1 (TGK) messenger; test: Transglutaminase I (TGK) messenger expression by quantitative RT-PCR in reconstructed epidermis SkinEthic; type: cell-based, human
Protocol: (§1) The study was carried out on a model of reconstructed epidermis SkinEthic. Upon receiving, the epidermes were precultured for 24 hours in SkinEthic medium. The culture medium was then replaced with medium containing the test product (two epidermes per concentration tested), and then the epidermes were cultured for 24 hours at 37° C. and 5% CO2. A batch of 2 epidermes was not treated. The culture supernatants were then removed and the epidermes were rinsed with a PBS solution, cut and deposited in sterile RNA-free tubes in the presence of Tri-Reagent (Sigma T9424) and then immediately frozen at −80° C.
(§2) The pairs of primers which were used in this study allow the amplification of the following specific fragments:
(§3) The reverse transcription was carried out in the following manner: • extraction of the total RNA of each epidermis with the aid of Tri-Reagent according to the protocol recommended by the supplier, and then a new extraction with chloroform and precipitation with isopropanol. • removal of the traces of potentially contaminating DNA by treating with the DNA-free system (Ambion) • carrying out of the reaction of reverse transcription of the mRNA in the presence of the oligo(dT) primer and of the enzyme Superscript II (Gibco) • quantification, by fluorescence, of the synthesized cDNA and adjustment of the concentrations of 50 ng/ml.
(§4) The PCR reactions (polymerase chain reactions) were carried out by quantitative PCR with the “Light cycler” system (Roche Molecular Systems Inc.) according to the procedures recommended by the supplier.
(§5) The PCR conditions were the following: activation of 10 min at 95° C., PCR reactions (10 sec at 95° C., 5 sec at 64° C. and 35 sec at 72° C.) 40 cycles, fusion of 5 sec at 95° C. and then 5 sec at 60° C.
(§6) The incorporation of fluorescence into the amplified DNA was measured continuously during the PCR cycles. This system makes it possible to obtain fluorescence measurement curves as a function of the PCR cycles and to thereby evaluate a relative expression value for each marker. The RE (relative expression) value is expressed in arbitrary units according to the following formula: (1/2^number of cycles)×10^6.
(§7) The results were expressed relative to the quantity of actin messenger (reference gene) and are represented, per marker, in the following tables.

[2] = tested on: Calmodulin-like skin protein (CLSP) messenger; test: Calmodulin-like skin protein (CLSP) messenger expression by quantitative RT-PCR in reconstructed epidermis SkinEthic; type: cell-based, human; conditions: 0.01 μM, 24 hours
Protocol: as §1, §2, §3, §4, §5, §6, §7

[3] = tested on: Loricrin (LORI) messenger; test: Loricrin messenger expression by quantitative RT-PCR in reconstructed epidermis SkinEthic; type: cell-based, human
Protocol: as §1, §2, §3, §4, §5, §6, §7

[4] = tested on: epidermal keratinocyte; conditions: Nissen J B et al, Exp. Dermatol. 1997; cited from earlier work
[5] = 0.01 μM, 24 hours, control = 100

In the case of β-Endorphin [Beta-endorphin], the “RE*TGK (UA)” value ([1]; 0.01 μM, 24 hours) is reported as 0.165 UA, the “RE*actin (UA)” value ([1]; 0.01 μM, 24 hours, reference gene, TGK table) is reported as 1.11 UA and the TGK/actin % control [1, 5] is reported as 176%. The “expression of the TGK messenger (in words)” value ([1]; at physiological concentration) was “an effect of the same type, although slightly less pronounced”, the CLSP/actin [2] was 0.0961 and the “RE*CLSP (UA)” value [2] was 0.1032 UA. The “RE*actin (UA)” value ([2]; reference gene, CLSP table) was 1.07 UA, the CLSP/actin % control ([2]; control = 100) was 174% and the LORI/actin ([3]; 0.01 μM, 24 hours) was 10.2. For the same substance, the “RE*LORI (UA)” value ([3]; 0.01 μM, 24 hours) was 11.24 UA, the “RE*actin (UA)” value ([3]; 0.01 μM, 24 hours, reference gene, loricrin table) was 1.11 UA and the LORI/actin % control [3, 5] was 179%. For the same substance, the “expression of the loricrin marker (in words)” value ([3]; at physiological concentration) was “stimulate the expression” and the “effect on epidermal proliferation and differentiation” value [4] was “no effect”.
